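Where inhibition never reached the appropriate level, the endpoint shown equals the highest concentration tested. Otherwise, values were interpolated linearly from a five-concentration, 48-hour dose response in 96-well plates. Here, GI50 denotes the concentration required for 50% inhibition of growth. TGI denotes the concentration required for complete inhibition of growth.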
Experiments:
Assay in all cases: NCI anticancer screen, dose series, 48 h
786-0 renal = system: 786-0 renal
A498 renal = system: A498 renal
A549 NSCLC = system: A549 NSCLC
ACHN renal = system: ACHN renal
BT-549 breast = system: BT-549 breast
CAKI-1 renal = system: CAKI-1 renal
CCRF-CEM leukemia = system: CCRF-CEM leukemia
COLO 205 colon = system: COLO 205 colon
DU-145 prostate = system: DU-145 prostate
EKVX NSCLC = system: EKVX NSCLC
HCC-2998 colon = system: HCC-2998 colon
HCT-116 colon = system: HCT-116 colon
HCT-15 colon = system: HCT-15 colon
HL-60(TB) leukemia = system: HL-60(TB) leukemia
HOP-62 NSCLC = system: HOP-62 NSCLC
HOP-92 NSCLC = system: HOP-92 NSCLC
HS 578T breast = system: HS 578T breast
HT29 colon = system: HT29 colon
IGROV1 ovarian = system: IGROV1 ovarian
K-562 leukemia = system: K-562 leukemia
KM12 colon = system: KM12 colon
LOX IMVI melanoma = system: LOX IMVI melanoma
M14 melanoma = system: M14 melanoma
MALME-3M melanoma = system: MALME-3M melanoma
MCF7 breast = system: MCF7 breast
MDA-MB-231 breast = system: MDA-MB-231 breast
MDA-MB-435 = system: MDA-MB-435
MDA-MB-468 breast = system: MDA-MB-468 breast
MOLT-4 leukemia = system: MOLT-4 leukemia
NCI-H226 lung = system: NCI-H226 lung
NCI-H23 lung = system: NCI-H23 lung
NCI-H460 lung = system: NCI-H460 lung
NCI-H522 lung = system: NCI-H522 lung
NCI/ADR-RES ovarian = system: NCI/ADR-RES ovarian
OVCAR-3 ovarian = system: OVCAR-3 ovarian
OVCAR-4 ovarian = system: OVCAR-4 ovarian
OVCAR-5 ovarian = system: OVCAR-5 ovarian
OVCAR-8 ovarian = system: OVCAR-8 ovarian
PC-3 prostate = system: PC-3 prostate
RPMI-8226 leukemia = system: RPMI-8226 leukemia
RXF 393 renal = system: RXF 393 renal
SF-268 CNS = system: SF-268 CNS
SF-295 CNS = system: SF-295 CNS
SF-539 CNS = system: SF-539 CNS
SK-MEL-2 melanoma = system: SK-MEL-2 melanoma
SK-MEL-28 melanoma = system: SK-MEL-28 melanoma
SK-MEL-5 melanoma = system: SK-MEL-5 melanoma
SK-OV-3 ovarian = system: SK-OV-3 ovarian
SN12C renal = system: SN12C renal
SNB-19 CNS = system: SNB-19 CNS
SNB-75 CNS = system: SNB-75 CNS
SR leukemia = system: SR leukemia
SW-620 colon = system: SW-620 colon
T-47D breast = system: T-47D breast
TK-10 renal = system: TK-10 renal
U251 CNS = system: U251 CNS
UACC-257 melanoma = system: UACC-257 melanoma
UACC-62 melanoma = system: UACC-62 melanoma
UO-31 renal = system: UO-31 renal

Q: Which results are given for `COc1nc(N)ncc1-c1ccc2ncnc(N3CCc4cc(F)c(Cl)cc43)c2c1`?
A: GI50 (786-0 renal): 1.49 µM; TGI (786-0 renal): 3.38 µM; GI50 (A498 renal): 1.54 µM; TGI (A498 renal): 5.43 µM; GI50 (A549 NSCLC): 2.04 µM; TGI (A549 NSCLC): 8.55 µM; GI50 (ACHN renal): 1.21 µM; TGI (ACHN renal): 4.22 µM; GI50 (BT-549 breast): 6.44 µM; TGI (BT-549 breast): > 100 µM; GI50 (CAKI-1 renal): 1.2 µM; TGI (CAKI-1 renal): 3.78 µM; GI50 (CCRF-CEM leukemia): 26 µM; TGI (CCRF-CEM leukemia): > 100 µM; GI50 (COLO 205 colon): 3.37 µM; TGI (COLO 205 colon): > 100 µM; GI50 (DU-145 prostate): 3.82 µM; TGI (DU-145 prostate): 36.2 µM; GI50 (EKVX NSCLC): 1.93 µM; TGI (EKVX NSCLC): 86.2 µM; GI50 (HCC-2998 colon): 2.79 µM; TGI (HCC-2998 colon): 10.1 µM; GI50 (HCT-116 colon): 2.93 µM; TGI (HCT-116 colon): 11.3 µM; GI50 (HCT-15 colon): 3.04 µM; TGI (HCT-15 colon): 24.7 µM; GI50 (HL-60(TB) leukemia): 3.08 µM; TGI (HL-60(TB) leukemia): > 100 µM; GI50 (HOP-62 NSCLC): 1.47 µM; TGI (HOP-62 NSCLC): 5.85 µM; GI50 (HOP-92 NSCLC): 1.81 µM; TGI (HOP-92 NSCLC): 7.23 µM; GI50 (HS 578T breast): 2 µM; TGI (HS 578T breast): 8.4 µM; GI50 (HT29 colon): 7.86 µM; TGI (HT29 colon): 52.2 µM; GI50 (IGROV1 ovarian): 0.594 µM; TGI (IGROV1 ovarian): 3.82 µM; GI50 (K-562 leukemia): 6.45 µM; TGI (K-562 leukemia): > 100 µM; GI50 (KM12 colon): 10.4 µM; TGI (KM12 colon): > 100 µM; GI50 (LOX IMVI melanoma): 3.11 µM; TGI (LOX IMVI melanoma): 14.8 µM; GI50 (M14 melanoma): 18.9 µM; TGI (M14 melanoma): > 100 µM; GI50 (MALME-3M melanoma): 8.68 µM; TGI (MALME-3M melanoma): 49.4 µM; GI50 (MCF7 breast): 3.11 µM; TGI (MCF7 breast): 22 µM; GI50 (MDA-MB-231 breast): 1.84 µM; TGI (MDA-MB-231 breast): 6.46 µM; GI50 (MDA-MB-435): 6.94 µM; TGI (MDA-MB-435): > 100 µM; GI50 (MDA-MB-468 breast): 0.269 µM; TGI (MDA-MB-468 breast): 1.81 µM; GI50 (MOLT-4 leukemia): 11.7 µM; TGI (MOLT-4 leukemia): > 100 µM; GI50 (NCI-H226 lung): 1.15 µM; TGI (NCI-H226 lung): 4.21 µM; GI50 (NCI-H23 lung): 4.26 µM; TGI (NCI-H23 lung): 39.1 µM; GI50 (NCI-H460 lung): 2.65 µM; TGI (NCI-H460 lung): 7.97 µM; GI50 (NCI-H522 lung): 2.3 µM; TGI (NCI-H522 lung): 11.5 µM; GI50 (NCI/ADR-RES ovarian): 2.73 µM; TGI (NCI/ADR-RES ovarian): 15.7 µM; GI50 (OVCAR-3 ovarian): 2.3 µM; TGI (OVCAR-3 ovarian): 11.2 µM; GI50 (OVCAR-4 ovarian): 1.87 µM; TGI (OVCAR-4 ovarian): 4.28 µM; GI50 (OVCAR-5 ovarian): 3.92 µM; TGI (OVCAR-5 ovarian): > 100 µM; GI50 (OVCAR-8 ovarian): 2.33 µM; TGI (OVCAR-8 ovarian): 9.2 µM; GI50 (PC-3 prostate): 10.6 µM; TGI (PC-3 prostate): > 100 µM; GI50 (RPMI-8226 leukemia): 3.26 µM; TGI (RPMI-8226 leukemia): > 100 µM; GI50 (RXF 393 renal): 1.5 µM; TGI (RXF 393 renal): 5.28 µM; GI50 (SF-268 CNS): 12.3 µM; TGI (SF-268 CNS): > 100 µM; GI50 (SF-295 CNS): 2.37 µM; TGI (SF-295 CNS): 7.58 µM; GI50 (SF-539 CNS): 2.96 µM; TGI (SF-539 CNS): 12.5 µM; GI50 (SK-MEL-2 melanoma): > 100 µM; TGI (SK-MEL-2 melanoma): > 100 µM; GI50 (SK-MEL-28 melanoma): 5.2 µM; TGI (SK-MEL-28 melanoma): 18.9 µM; GI50 (SK-MEL-5 melanoma): 4.15 µM; TGI (SK-MEL-5 melanoma): > 100 µM; GI50 (SK-OV-3 ovarian): 1.62 µM; TGI (SK-OV-3 ovarian): 4.03 µM; GI50 (SN12C renal): 1.92 µM; TGI (SN12C renal): 10.1 µM; GI50 (SNB-19 CNS): 2.21 µM; TGI (SNB-19 CNS): 12.2 µM; GI50 (SNB-75 CNS): 1.47 µM; TGI (SNB-75 CNS): 4.02 µM; GI50 (SR leukemia): 3.09 µM; TGI (SR leukemia): > 100 µM; GI50 (SW-620 colon): 4.26 µM; TGI (SW-620 colon): > 100 µM; GI50 (T-47D breast): 1.61 µM; TGI (T-47D breast): 7.67 µM; GI50 (TK-10 renal): 0.703 µM; TGI (TK-10 renal): 4.23 µM; GI50 (U251 CNS): 2.3 µM; TGI (U251 CNS): 7.74 µM; GI50 (UACC-257 melanoma): 8.26 µM; TGI (UACC-257 melanoma): 83.6 µM; GI50 (UACC-62 melanoma): 3.92 µM; TGI (UACC-62 melanoma): 19.9 µM; GI50 (UO-31 renal): 0.583 µM; TGI (UO-31 renal): 3.99 µM

From PubChem BioAssay (NCI)
